Source: patent US20190151312A1, “HEPARAN SULFATE BIOSYNTHESIS INHIBITORS FOR THE TREATMENT OF DISEASES” (BioMarin Pharmaceutical Inc., priority 2014, published 2019)
Where two headings read alike, the source gives them in different places.

Test system: GM01896 cells (MPS II dermal fibroblasts)
Experiment: Assay 1: MPS cellular assay, MPS II (heparan sulfate disaccharide biomarkers by LC-MS)
Assay type: cell-based, human
Conditions: Assay 1 for MPS II, heparan sulfate disaccharide biomarkers (I2a4, I2a6, I2S0 and/or I2S6), read-out: IC50 Range
In short: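 MPS II patient dermal fibroblasts (GM01896) treated with compound at ≤30 μM for 4 to 21 days. Heparan sulfate GAGs isolated by anion exchange, digested with heparinases I-III, aniline-tagged against [13C6]aniline standards and quantified by LC-MS; IC50 from curve fitting. Viability monitored by alamar blue or ATP.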

| Compound | IC50 (Homo sapiens, Fibroblast) [nM] | IC50 [nM] |
| --- | --- | --- |
| CCc1nn(C)c2cc(-c3cc(Nc4ccc(Cl)cc4)nc(N4CCOCC4)n3)ccc12 [(4-chlorophenyl)[6-(3-ethyl-1-methyl(1H-indazol-6-yl))-2-morpholin-4-ylpyrimidin-4-yl]amine] | 1000 to 5000 |  |
| Clc1ccc(Nc2cc(-c3ccc4c(c3)ncn4C3COC3)nc(N3CCOCC3)n2)cc1 [(4-chlorophenyl)[2-morpholin-4-yl-6-(1-oxetan-3-ylbenzimidazol-5-yl)pyrimidin-4-yl]amine] | 500 to 1000 |  |
| Cn1nc(CCN2CCOCC2)c2ccc(-c3cc(Nc4ccc5cn[nH]c5c4)nc(N4CCOCC4)n3)cc21 [1H-indazol-6-yl{6-[1-methyl-3-(2-morpholin-4-ylethyl)(1H-indazol-6-yl)]-2-morpholin-4-ylpyrimidin-4-yl}amine] | 500 to 1000 |  |
| Cn1ccc2ccc(Nc3cc(-c4ccc5nc(CCN6CCOCC6)n(CC6CC6)c5c4)nc(N4CCOCC4)n3)cc21 [{6-[1-(cyclopropylmethyl)-2-(2-morpholin-4-ylethyl)benzimidazol-6-yl]-2-morpholin-4-ylpyrimidin-4-yl}(1-methylindol-6-yl)amine] | < 500 |  |
| CN(C)C(=O)c1ccc(Nc2cc(-c3ccc4cnn(C)c4c3)nc(N3CCOCC3)n2)cc1 [N,N-dimethyl(4-{[6-(1-methyl(1H-indazol-6-yl))-2-morphlin-4-ylpyrimidin-4-yl]amino}phenyl)carboxamide] |  | 500 to 1000 |
| Cc1cc2ccc(Nc3cc(-c4ccc5c(CCN6CCOCC6)nn(C)c5c4)nc(N4CCOCC4)n3)cc2n1C [(1,2-dimethylindol-6-yl){6-[1-methyl-3-(2-morpholin-4-ylethyl)(1H-indazol-6-yl)]-2-morpholin-4-ylpyrimidin-4-yl}amine] | 500 to 1000 |  |
| Cn1ncc2ccc(-c3cc(Nc4ccc5nnn(C)c5c4)nc(N4CCOCC4)n3)cc21 [[6-(1-methyl(1H-indazol-6-yl))-2-morpholin-4-ylpyrimidin-4-yl](1-methylbenzotriazol-6-yl)amine] | 1000 to 5000 |  |
| CN1CCN(CCc2nn(C)c3cc(-c4cc(Nc5ccc(Cl)cc5)nc(N5CCOCC5)n4)ccc23)CC1 [(4-chlorophenyl)(6-{1-methyl-3-[2-(4-methylpiperazinyl)ethyl](1H-indazol-6-yl)}-2-morpholin-4-ylpyrimidin-4-yl)amine] | 500 to 1000 |  |
| Cn1ncc2ncc(-c3cc(Nc4ccc(-c5nnc[nH]5)cc4)nc(N4CCOCC4)n3)cc21 [(4-(4H-1,2,4-triazol-3-yl)phenyl)[6-(1-methylpyrazolo[4,5-b]pyridin-6-yl)-2-morpholin-4-ylpyrimidin-4-yl]amine] | < 500 |  |
| CNC(=O)c1ccc(Nc2cc(-c3ccc4c(c3)ncn4C)nc(N3CCOCC3)n2)cc1 [N-methyl(4-{[6-(1-methylbenzimidazol-5-yl)-2-morpholin-4-ylpyrimidin-4-yl]amino}phenyl)carboxamide] | < 500 |  |
| Cn1cnc2cc(-c3cc(Nc4ccc(Cl)cc4)nc(N4CCOCC4)n3)ccc21 [(4-chlorophenyl)[6-(1-methylbenzimidazol-5-yl)-2-morpholin-4-ylpyrimidin-4-yl]amine] | 500 to 1000 |  |
| Clc1ccc(Nc2cc(-c3ccc4ncn(CC5CC5)c4c3)nc(N3CCOCC3)n2)cc1 [(4-chlorophenyl){6-[1-(cyclopropylmethyl)benzimidazol-6-yl]-2-morpholin-4-ylpyrimidin-4-yl}amine] | 500 to 1000 |  |
| Cn1nc(N2CCCC2)c2ccc(-c3cc(Nc4ccc(Cl)cc4)nc(N4CCOCC4)n3)cc21 [(4-chlorophenyl)[6-(1-methyl-3-pyrrolidinyl(1H-indazol-6-yl))-2-morpholin-4-ylpyrimidin-4-yl]amine] |  | 1000 to 5000 |
| Cn1cnc2ccc(-c3cc(Nc4ccc(C#N)cc4)nc(N4CCOCC4)n3)cc21 [4-{[6-(1-methylbenzimidazol-6-yl)-2-morpholin-4-ylpyrimidin-4-yl]amino}benzenecarbonitrile] | 1000 to 5000 |  |
| CN1CCN(CCn2ncc3ccc(-c4cc(Nc5ccc(Cl)cc5)nc(N5CCOCC5)n4)cc32)CC1 [(4-chlorophenyl)(6-{1-[2-(4-methylpiperazinyl)ethyl](1H-indazol-6-yl)}-2-morpholin-4-ylpyrimidin-4-yl)amine] | 500 to 1000 |  |
